Source: patent US10167299B2, “1-(3-aminopropyl) substituted cyclic amine compounds, preparation method therefor, and pharmaceutical compositions and uses thereof” (SHANGHAI INSTITUTE OF MATERIA MEDICA, CHINESE ACADEMY OF …, priority 2013, dated 2019)
≈ marks a conversion by molar mass, not a printed value.

Tests used:
HIV-1SF162 virus strain [1] = assay: Inhibition of viral replication in HOS-CD4-CCR5 cells infected with HIV-1SF162; type: cell-based; conditions: Human immunodeficiency virus 1, HOS-CD4-CCR5
Description: (§1) On the day before the test, 1×10^5/ml of HOS-CD4-CCR5 cells were inoculated in 96-well plates with 100 μl for each well. The compound to be tested was subject to 5-fold dilution in 96-well microtiter plate with DMEM complete medium (containing 10% FBS). The starting concentration was 1 μM and six dilutions were obtained. Triplicate wells were set for each dilution and each well contained 100 μl mixture. While wells not containing drugs were set as control. The supernatant was removed and 100 μl of drug was added and incubated for 2 h. Then 100 μl of HIV-1SF162 and HIV-1Ba-L were added to dilute supernatant. The cells were infected for 1 h, free virus was washed out and drug with the same final concentration was added. MVC was used as positive control. The cells were cultured at 37° C. with 5% CO2 for three days. The supernatant was collected, lysed and inactivated with 0.5% Triton X-100. The inhibition effect of drug on HIV-1 replication was detected using p24 antigen capture ELISA method.

in vivo = conditions: male, rat
[2] = Cytotoxicity (CC50) in TZM-bl cells; type: cell-based; conditions: human; TZM-bl cells (Table 3); read-out: CC50
HIV-1KM018 virus strain = assay: Inhibition of viral replication in PBMC infected with HIV-1KM018; type: cell-based
Description: (§2) The virus was titrated according to the modified method of Johnson & Byington. Briefly, the HIV-1 stock solution was subject to four-fold dilution in a 96-well plate (ten gradients) sextuplicate for each gradient, while setting six control-wells. Into each well was added 100 μl (5×10^6/ml) PHA-stimulated PBMC cells and final volume per well was 200 μl. The cells were cultured at 37° C. with 5% CO2. […] On the seventh day, the infected supernatant was collected and lysed with 0.5% Triton X100. The p24 antigen was detected by ELISA and TCID50 of virus was calculated according to Reed & Muench method (50% Tissue culture infection dose).
(§3) The starting concentration was 1 μM, six dilutions were obtained, and each well contained 200 μl mixture. While wells not containing drugs were set as control. […] After homogeneously mixed, the mixture was immediately added to 48-well plate containing diluted drug and each well was added with 200 μl of mixture. MVC was used as positive control. The cells were cultured at 37° C. with 5% CO2 for seven days (drug with the same concentration was added on the third day). The supernatant was collected, lysed and inactivated with 0.5% Triton X-100. The inhibition effect of drug on HIV-1 replication was detected using p24 antigen capture ELISA method.

[3] = Toxicity test of compounds on HOS-CD4-CCR5 cells (MTT); type: cell-based; conditions: human; HOS-CD4+-CCR5 cells (Table 7)
Description: (§4) The compound to be tested was subject to 5-fold dilution in a 96-well microtiter plate with RPMI-1640 or DMEM complete medium (containing 10% FBS) (Six dilution) triplicate for each dilution and 100 μl for each well. While wells not containing drugs were set as control. Into each well was added 100 μl of 4×10^5/ml PM1, HOS-CD4-CCR5 cells or 100 μl of 5×10^6/ml PHA stimulated PBMC. The cells were cultured at 37° C. with 5% CO2 for three days (PBMC cells were cultured for seven days and 100 μl of fresh RPMI-1640 complete medium was supplemented on the third day). Cytotoxicity was tested with MTT assay. OD values were measured by ELx800 microplate reader. The detection wavelength was 570 nm, and the reference wavelength was 630 nm.

HIV-1SF162 virus strain [4] = assay: Inhibition of viral replication in PBMC infected with HIV-1SF162; type: cell-based; conditions: Human immunodeficiency virus 1, PBMC
Description: as §2, §3

HIV-1Ba-L virus strain [5] = assay: Inhibition of viral replication in PBMC infected with HIV-1Ba-L; type: cell-based
Description: The virus was titrated according to the modified method of Johnson & Byington. Briefly, the HIV-1 stock solution was subject to four-fold dilution in a 96-well plate (ten gradients) sextuplicate for each gradient, while setting six control-wells. Into each well was added 100 μl (5×10^6/ml) PHA-stimulated PBMC cells and final volume per well was 200 μl. The cells were cultured at 37° C. with 5% CO2. On the third day, 100 μl of fresh RPMI-1640 complete medium was supplemented. On the seventh day, the infected supernatant was collected and lysed with 0.5% Triton X100. The p24 antigen was detected by ELISA and TCID50 of virus was calculated according to Reed & Muench method (50% Tissue culture infection dose).
The compound to be tested was subject to 5-fold dilution in 48-well plate with RPMI-1640 complete medium (containing 10% FBS). The starting concentration was 1 μM, six dilutions were obtained, and each well contained 200 μl mixture. While wells not containing drugs were set as control. Virus (MOI=0.01) was added to 5×10^6/ml of PBMC cells which have been stimulated by PHA for 72 h. After homogeneously mixed, the mixture was immediately added to 48-well plate containing diluted drug and each well was added with 200 μl of mixture. MVC was used as positive control. The cells were cultured at 37° C. with 5% CO2 for seven days (drug with the same concentration was added on the third day). The supernatant was collected, lysed and inactivated with 0.5% Triton X-100. The inhibition effect of drug on HIV-1 replication was detected using p24 antigen capture ELISA method.

HIV-1SF162 virus strain [6] = assay: Inhibition activity on TZM-bl cells infected with HIV-1SF162
[7] = Toxicity test of compounds on PBMC cells (MTT); type: cell-based; conditions: human; PBMC cells (Table 4)
Description: as §4

HIV-1Ba-L virus strain [8] = assay: Inhibition of viral replication in HOS-CD4-CCR5 cells infected with HIV-1Ba-L; type: cell-based
Description: as §1

[9] = Human immunodeficiency virus 1, PBMC

Work on `Cc1ccc([C@H](CCN2C3CCC2CC(n2c(C)nnc2C(C)C)C3)NC(=O)C2CCC(F)(F)CC2)s1` (stereo partly drawn) [Compound 29, 4,4-difluoro-N-[(1S)-3-[exo-3-(3-isopropyl-5-methyl-4H-1,2,4-triazol-4-yl)-8-azabicyclo[3.2.1]octane-8-yl]-1-(5-methylthiophen-2-yl)propyl]cyclohexane-1-carboxamide] yielded an EC50 (HIV-1SF162 virus strain [1]) of 0.0186 µg/mL (≈ 0.0348 µM), a bioavailability (in vivo) of 40.1% and an AUC(0-inf) (in vivo; 10 mg/kg) of 2330 ng·h/mL. It also gave an AUC(0-t) (in vivo; 10 mg/kg) of 2330 ng·h/mL, a Cmax (in vivo; 10 mg/kg) of 1690 ng/mL and an MRT (in vivo; 10 mg/kg) of 2.29 h. The Tmax (in vivo; 10 mg/kg) was 0.25 h, the half-life (in vivo; 10 mg/kg) was 1.6 h and the AUC(0-inf) (in vivo; po, 20 mg/kg) was 2790 ng·h/mL. For the same compound, the AUC(0-t) (in vivo; po, 20 mg/kg) was 1870 ng·h/mL, the Cmax (in vivo; po, 20 mg/kg) was 580 ng/mL and the MRT (in vivo; po, 20 mg/kg) was 4.79 h. For the same compound, the Tmax (in vivo; po, 20 mg/kg) was 2 h, the half-life (in vivo; po, 20 mg/kg) was 32.8 h and the CC50 at 3 days [2] was over 200 µg/mL. For the same compound, the EC50 (HIV-1KM018 virus strain; [9]) was 0.103 µg/mL (≈ 0.193 µM), the “therapeutic index (TI)” value (HIV-1KM018 virus strain; PBMC cells infected with HIV-1KM018) was 1937.2 and the CC50 at 3 days [3] was over 200 µg/mL. For the same compound, the EC50 (HIV-1SF162 virus strain [4]) was 0.00505 µg/mL (≈ 0.00946 µM), the EC50 (HIV-1Ba-L virus strain [5]; [9]) was 0.236 µg/mL (≈ 0.442 µM) and the “therapeutic index (TI)” value (HIV-1Ba-L virus strain [5]; PBMC cells infected with HIV-1Ba-L) was 818.3. For the same compound, the EC50 (HIV-1SF162 virus strain [6]; Human immunodeficiency virus 1, TZM-bl) was 0.012 µg/mL (≈ 0.0225 µM), the “therapeutic index (TI)” value (HIV-1SF162 virus strain [6]; TZM-bl cells infected with HIV-1SF162) was over 16666.67 and the “cytotoxicity in vitro and therapeutic index in words, versus positive control compound” value (HIV-1SF162 virus strain [6]; TZM-bl cells infected with HIV-1SF162, conclusion from Table 3) was “comparable with the positive control compound”. For the same compound, the CC50 at 7 days [7] was over 200 µg/mL, the “therapeutic index (TI)” value (HIV-1Ba-L virus strain [8]; HOS-CD4+-CCR5 cells infected with HIV-1Ba-L) was over 9144 and the EC50 (HIV-1Ba-L virus strain [8]; Human immunodeficiency virus 1, HOS-CD4-CCR5) was 0.0219 µg/mL (≈ 0.041 µM).
